Values after ≈ are worked out from the molar mass of the structure shown. Read-outs that look alike come from different tables or passages of the source.
How the values were obtained:
[1] = test system: Leishmania amazonensis promastigotes; assay: In vitro leishmanicidal activity (resazurin viability) against promastigotes; type: cell-based; conditions: for Activity against L. amazonensis promastigotes in words: concentrations up to 1000.0 μg mL^−1
Method: Culture of L. amazonensis (LTCP 9667 obtained by Giudice et al.) promastigotes were maintained at 24 °C in Schneider′s Drosophila medium (Sigma-Aldrich, St. Louis, MO, USA; pH 6.7) supplemented with 10% (v/v) inactivated fetal bovine serum (FBS, Gibco by Thermo Fisher Scientific, Carlsbad, CA, USA), ampicillin 500 mg m^−1, 1% and gentamicin 40 mg mL^−1, 0.1% (Sigma-Aldrich, St. Louis, MO, USA).
Promastigotes of L. amazonensis in log-phase growth were distributed in a 96-well plate (5 × 10^5 cells/well) and treated with the evaluated compounds solubilized in dimethyl sulfoxide (DMSO, Sigma-Aldrich, St. Louis, MO, USA) and diluted in Schneider′s medium in different concentrations (between 0.0 and 1000.0 μg mL^−1) and incubated for 24 h at 24 °C in a biochemical oxygen demand (BOD) incubator. Promastigotes incubated in the absence of test compounds were used as a negative control. Promastigotes treated with Amphotericin B (Sigma-Aldrich, St. Louis, MO, USA) were used as a positive control. The cellular viability of the parasites was evaluated using the colorimetric method of resazurin, adapted from Kulshrestha et al.. Briefly, after the treatment time, 50 μL of resazurin (2 mM mL^−1 in phosphate-buffered saline (PBS)) (Sigma-Aldrich, St. Louis, MO, USA) was added per well and the plates were again incubated for 6 h at 24 °C, then read in a spectrophotometer (Synerg H1, Biotek, Winooski, VT, USA) at 570 and 595 nm. Absorbance was used to calculate cell viability based on the following equation:(1) Viability (%)=Abs.570 nm−(Abs.595 nm × RO) test/Abs.570 nm –(Abs.595 nm × RO) control × 100 wherein:(2) RO= OD medium with resazurin in 570 nm−OD medium without resasurin in 570 nm/OD medium with resazurin in 595 nm−OD medium without resazurin in 595 nm
The IC50 values were obtained by a non-linear regression analysis from the viability values using the GraphPad Prism 5.0 program. All experiments were performed in triplicate from three independent experiments and the data were expressed as mean ± standard deviation (±SD).

[2] = Cytotoxicity on L929 fibroblasts (MTT assay); type: cell-based; conditions: mouse, MTT, mean ± SD; for viability at 24 h, 50 µg mL^−1: 50 µg mL^−1, 24 h; for viability at 24 h, 100 µg mL^−1: 100 µg mL^−1, 24 h
Method: (§1) Culture of the mouse fibroblast cell line (L929, ATCC CCL-1) were maintained in Dulbecco′s Modified Eagle Medium (DMEM, Sigma-Aldrich, St. Louis, MO, USA) supplemented with 10% heat-inactivated FBS and 1% streptomycin/penicillin (5000 units + 5 mg mL^−1, Sigma-Aldrich, St. Louis, MO, USA), and kept in a humid atmosphere at 37 °C and 5% CO2.
(§2) Fibroblasts were distributed in 96-well plates (2 × 10^4 cells/well) and incubated for 24 h in a 5% CO2 atmosphere at 37 °C. After this period, the medium was removed and the adhered cells were treated with the compounds at concentrations of 50.0 and 100.0 μg mL^−1 for 24 h under the same incubation conditions. Untreated cells were used as controls and considered with 100% cell viability. After the treatment period, cell viability was determined by MTT assay as described in ISO 10993-5 [50], with modifications. For this, the cell monolayer was washed twice with PBS (pH 7.4), and then 200 μl MTT (0.5 mg mL^−1 in PBS, Sigma-Aldrich, St. Louis, MO, USA) was added to each well. The plates were again incubated under the same conditions as listed above, for a period of 3 h. After the incubation time, the MTT was aspirated and the formazan crystals were solubilized in 200 μL of DMSO. After 10 min, the optical density (OD) was measured on a microplate reader at the wavelength of 570 nm. The results were expressed as percentage of viability according to the following equation:(3) Viability=Absorbance (treated cell)/Absorbance (control cell) × 100
(§3) Each experiment was conducted in quadruplicate and repeated at least three times. Data were expressed as mean ± standard deviation (±SD).

L. chagasi promastigotes = conditions: cited from earlier work
[3] = test system: L. amazonensis promastigotes; conditions: cited from earlier work
[4] = test system: promastigotes of L. infantum chagasi; parameters: method as in PMID 27591136; conditions: up to the dose of 750 μg mL^−1; cited from earlier work
L929 fibroblasts = assay: Cytotoxicity on L929 fibroblasts (MTT assay); type: cell-based; conditions: intensity scale of Rodrigues et al.; for Cytotoxicity class (symbol) at 50 µg mL^−1: 50 µg mL^−1, 24 h; for Cytotoxicity class (symbol) at 50 µg mL^−1 / Cytotoxicity class (symbol) at 100 µg mL^−1: MTT; for Cytotoxicity class (symbol) at 100 µg mL^−1: 100 µg mL^−1, 24 h
Method: as §1, §2, §3

[5] = test system: L. donovani promastigotes; parameters: method as in PMID 18095647; conditions: cited from earlier work
[6] = test system: promastigotes of L. infantum; parameters: method as in PMID 24365244; conditions: doses up to 400 μg mL^−1; cited from earlier work
[7] = test system: promastigotes of L. tropica; parameters: method as in PMID 24365244; conditions: doses up to 400 μg mL^−1; cited from earlier work
[8] = test system: promastigotes of L. major; parameters: method as in PMID 24365244; conditions: doses up to 400 μg mL^−1; cited from earlier work
L. panamensis = test system: L. panamensis; parameters: method as in earlier work; conditions: cited from earlier work
[9] = Leishmania amazonensis, 24 h, promastigotes, 24 h incubation, resazurin method, mean ± SD of three independent experiments in triplicate, read-out: IC50
[10] = Leishmania amazonensis, 24 h, promastigotes, 24 h incubation, resazurin method, mean ± SD of three independent experiments in triplicate, read-out: IC50 (µg mL^−1)
[11] = L. chagasi promastigotes, ref 28
[12] = Leishmania amazonensis, 24 h, read-out: IC50 (µg mL^−1)

C=C(C)[C@@H]1CC=C(C)C(=O)C1 [(−)-Carvone, (5R)-2-methyl-5-prop-1-en-2-ylcyclohex-2-en-1-one]
IC50 [1, 9]: 1300 ± 113 µM | IC50 [1, 10]: 195 ± 16.9 µg/mL | viability at 24 h, 50 µg mL^−1 [2]: 65.1 ± 4.7% | viability at 24 h, 100 µg mL^−1 [2]: 58.2 ± 4.2% | IC50 (L. chagasi promastigotes; [11]): > 300.0 µg/mL

C=C[C@](C)(O)CCC=C(C)C [(−)-Linalool, (3R)-3,7-dimethylocta-1,6-dien-3-ol]
IC50 [1, 9]: 1790 ± 156 µM | IC50 [1, 10]: 276 ± 24 µg/mL | viability at 24 h, 50 µg mL^−1 ([2]; L929 fibroblast cells): 65.7 ± 8.2% | viability at 24 h, 100 µg mL^−1 ([2]; L929 fibroblast cells): 66.7 ± 7.8% | IC50 ([3]; L. amazonensis promastigotes): 0.0043 µg/mL (≈ 0.0279 µM) | Changes in the viability of promastigotes in words [4]: did not identify changes in the viability

CC(C)[C@@H]1CC[C@@H](C)C[C@H]1O [(−)-Menthol, (1R,2S,5R)-5-methyl-2-propan-2-ylcyclohexan-1-ol]
IC50 [1, 9]: 1270 ± 76.8 µM | IC50 [1, 10]: 198 µg/mL | IC50 ([1]; promastigotes, 24 h incubation, resazurin method, mean ± SD of three independent experiments in triplicate, listed as (–)-Menthol (7)): 198.9 ± 12.0 µg/mL | viability at 24 h, 50 µg mL^−1 ([2]; L929 fibroblast cells): 83.8 ± 8% | viability at 24 h, 100 µg mL^−1 ([2]; L929 fibroblast cells): 81.2 ± 2.4% | Cytotoxicity class (symbol) at 50 µg mL^−1 (L929 fibroblasts): ** (Non-cytotoxic (viability >80%)) | Cytotoxicity classification in words at 50.0 μg mL^−1 (L929 fibroblasts): non-cytotoxic | Cytotoxicity class (symbol) at 100 µg mL^−1 (L929 fibroblasts): ** (Non-cytotoxic (viability >80%))

C[C@@H]1[C@H](O)[C@@H](C)/C=C/C=C/C=C/C=C/C=C/C=C/C=C/[C@H](O[C@@H]2O[C@H](C)[C@@H](O)[C@H](N)[C@@H]2O)C[C@@H]2O[C@](O)(C[C@@H](O)C[C@@H](O)[C@H](O)CC[C@@H](O)C[C@@H](O)CC(=O)O[C@H]1C)C[C@H](O)[C@H]2C(=O)O [Amphotericin B, reference compound]
IC50 [1, 9]: 0.054 ± 0.01 µM | IC50 [1, 10]: 0.05 ± 0.01 µg/mL

Cc1ccc(C(C)C)cc1O [Carvacrol, 2-methyl-5-propan-2-ylphenol]
IC50 ([1]; Leishmania amazonensis, 24 h): 169 ± 16 µM | IC50 [1, 12]: 25.4 ± 2.4 µg/mL | viability at 24 h, 50 µg mL^−1 ([2]; L929 fibroblast cells): 51.3 ± 3% | viability at 24 h, 100 µg mL^−1 ([2]; L929 fibroblast cells): 46.1 ± 2.9% | Cytotoxicity class (symbol) at 100 µg mL^−1 (L929 fibroblasts): * (Moderate cytotoxicity (viability between >30% and <50%)) | Cytotoxicity classification in words at 100.0 μg mL^−1 (L929 fibroblasts): moderate cytotoxicity | IC50 (L. chagasi promastigotes; L. chagasi promastigotes, ref 27): 2.3 µg/mL (≈ 15.3 µM) | IC50 (L. chagasi promastigotes; [11]): 28.0 µg/mL (≈ 186 µM) | IC50 ([3]; L. amazonensis promastigotes, 72 h incubation, p-nitrophenol phosphate): 15.3 µg/mL (≈ 102 µM)

CC1=CCC2C(C1)C2(C)C (stereo not shown) [Compound 3-Carene, 4,7,7-trimethylbicyclo[4.1.0]hept-3-ene]
IC50 [1, 9]: 532 ± 136 µM | IC50 [1, 10]: 72.5 ± 18.5 µg/mL | viability at 24 h, 50 µg mL^−1 ([2]; L929 fibroblast cells): 84.1 ± 6.4% | viability at 24 h, 100 µg mL^−1 ([2]; L929 fibroblast cells): 48.7 ± 6.7% | Cytotoxicity class (symbol) at 50 µg mL^−1 (L929 fibroblasts): ** (Non-cytotoxic (viability >80%)) | Cytotoxicity classification in words at 50.0 μg mL^−1 (L929 fibroblasts): non-cytotoxic | Cytotoxicity class (symbol) at 100 µg mL^−1 (L929 fibroblasts): * (Moderate cytotoxicity (viability between >30% and <50%)) | Cytotoxicity classification in words at 100.0 μg mL^−1 (L929 fibroblasts): moderate cytotoxicity | IC50 [5]: 27.0 µg/mL (≈ 198 µM)

C=CCc1ccc(O)c(OC)c1 [Eugenol, 2-methoxy-4-prop-2-enylphenol]
IC50 ([1]; Leishmania amazonensis, 24 h): 505 ± 37.8 µM | IC50 [1, 12]: 82.9 ± 6.2 µg/mL | viability at 24 h, 50 µg mL^−1 ([2]; L929 fibroblast cells): 78.1 ± 7% | viability at 24 h, 100 µg mL^−1 ([2]; L929 fibroblast cells): 63.1 ± 1.7% | IC50 (L. chagasi promastigotes; promastigote forms of L. chagasi): 56.1 µg/mL (≈ 342 µM)

CC1(C)[C@@H]2CC[C@@]1(C)[C@H](O)C2 [Isoborneol, (1R,3R,4R)-4,7,7-trimethylbicyclo[2.2.1]heptan-3-ol]
IC50 [1, 9]: 1230 ± 63.5 µM | IC50 [1, 10]: 190 ± 9.8 µg/mL | viability at 24 h, 50 µg mL^−1 ([2]; L929 fibroblast cells): 73.3 ± 9.4% | viability at 24 h, 100 µg mL^−1 ([2]; L929 fibroblast cells): 72.9 ± 7.5% | Leishmanicidal activity in words [6]: No leishmanicidal activity was found | Leishmanicidal activity in words [7]: No leishmanicidal activity was found | Leishmanicidal activity in words [8]: No leishmanicidal activity was found

Cc1ccc(C(C)C)c(O)c1 [Thymol, 5-methyl-2-propan-2-ylphenol]
IC50 [1, 9]: 178 ± 24.6 µM | IC50 [1, 10]: 26.8 ± 3.7 µg/mL | viability at 24 h, 50 µg mL^−1 ([2]; L929 fibroblast cells): 64.5 ± 4% | viability at 24 h, 100 µg mL^−1 ([2]; L929 fibroblast cells): 58.5 ± 6.7% | IC50 ([3]; L. amazonensis): 22.6 µg/mL (≈ 150 µM) | IC50 (L. panamensis): 194.3 µg/mL (≈ 1290 µM)

Cc1ccc(C(C)C)cc1 [p-Cymene, 1-methyl-4-propan-2-ylbenzene]
IC50 [1, 9]: > 7450 µM | IC50 [1, 10]: > 1000 µg/mL | Activity against L. amazonensis promastigotes in words [1]: no effect on the viability | Activity against L. amazonensis promastigotes in words ([1]; listed as p-cymene): did not exhibit any activity | viability at 24 h, 50 µg mL^−1 ([2]; L929 fibroblast cells): 91.2 ± 6.6% | viability at 24 h, 100 µg mL^−1 ([2]; L929 fibroblast cells): 87.1 ± 6.7% | Cytotoxicity class (symbol) at 50 µg mL^−1 (L929 fibroblasts): ** (Non-cytotoxic (viability >80%)) | Cytotoxicity classification in words at 50.0 μg mL^−1 (L929 fibroblasts): non-cytotoxic | Cytotoxicity class (symbol) at 100 µg mL^−1 (L929 fibroblasts): ** (Non-cytotoxic (viability >80%)) | IC50 (L. chagasi promastigotes; [11]): 149.1 µg/mL (≈ 1110 µM)

Source: paper PMC6154737, “Leishmanicidal Activity and Structure-Activity Relationships of Essential Oil Constituents” (Molecules : A Journal of Synthetic Chemistry and Natural …, 2017)
